According to the NIST ThermoML archive (doi:10.1021/je5010643):

Test: xn = mol fraction of the nth substance listed
Settings: 101.32 kPa, Liquid; for speed of sound: Frequency=3 MHz, Linear variable-path acoustic interferometer

CC(C)C(=O)O [2-methylpropanoic acid] + C1COCCO1
Settings | mass density [kg/m3] | speed of sound [m/s]
295.15 K, x2 = 0 | 945.28 | 1100.2
295.15 K, x2 = 0.1 | 955.63 | 1119.6
295.15 K, x2 = 0.2 | 965.46 | 1140
295.15 K, x2 = 0.3 | 975.08 | 1161.7
295.15 K, x2 = 0.4 | 984.2 | 1184.5
295.15 K, x2 = 0.5 | 993.05 | 1208.8
295.15 K, x2 = 0.6 | 1001.52 | 1234.7
295.15 K, x2 = 0.7 | 1009.56 | 1262.3
295.15 K, x2 = 0.8 | 1017.23 | 1291.8
295.15 K, x2 = 0.9 | 1024.38 | 1323.6
298.15 K, x2 = 0 | 942.22 | 1086
298.15 K, x2 = 0.1 | 952.65 | 1105.4
298.15 K, x2 = 0.2 | 962.63 | 1125.9
298.15 K, x2 = 0.3 | 972.12 | 1147.5
298.15 K, x2 = 0.4 | 981.18 | 1170.5
298.15 K, x2 = 0.5 | 989.97 | 1194.9
298.15 K, x2 = 0.6 | 998.46 | 1220.8
298.15 K, x2 = 0.7 | 1006.5 | 1248.6
298.15 K, x2 = 0.8 | 1014.12 | 1278.3
298.15 K, x2 = 0.9 | 1021.3 | 1310.3
301.15 K, x2 = 0 | 939.16 | 1072.1
301.15 K, x2 = 0.1 | 949.87 | 1091.5
301.15 K, x2 = 0.2 | 959.66 | 1111.9
301.15 K, x2 = 0.3 | 969.21 | 1133.6
301.15 K, x2 = 0.4 | 978.18 | 1156.6
301.15 K, x2 = 0.5 | 986.93 | 1181.1
301.15 K, x2 = 0.6 | 995.31 | 1207.2
301.15 K, x2 = 0.7 | 1003.43 | 1235
301.15 K, x2 = 0.8 | 1011.08 | 1264.9
301.15 K, x2 = 0.9 | 1018.24 | 1297.1
304.15 K, x2 = 0 | 936.1 | 1058.2
304.15 K, x2 = 0.1 | 946.87 | 1077.6
304.15 K, x2 = 0.2 | 956.7 | 1098
304.15 K, x2 = 0.3 | 966.21 | 1119.7
304.15 K, x2 = 0.4 | 975.19 | 1142.8
304.15 K, x2 = 0.5 | 983.97 | 1167.3
304.15 K, x2 = 0.6 | 992.36 | 1193.4
304.15 K, x2 = 0.7 | 1000.47 | 1221.5
304.15 K, x2 = 0.8 | 1008.1 | 1251.5
304.15 K, x2 = 0.9 | 1015.19 | 1283.9
307.15 K, x2 = 0 | 933.04 | 1043.4
307.15 K, x2 = 0.1 | 943.94 | 1062.8
307.15 K, x2 = 0.2 | 953.7 | 1083.4
307.15 K, x2 = 0.3 | 963.19 | 1105.1
307.15 K, x2 = 0.4 | 972.14 | 1128.3
307.15 K, x2 = 0.5 | 981.02 | 1152.9
307.15 K, x2 = 0.6 | 989.41 | 1179.3
307.15 K, x2 = 0.7 | 997.53 | 1207.5
307.15 K, x2 = 0.8 | 1005.12 | 1237.9
307.15 K, x2 = 0.9 | 1011.87 | 1270.7
310.15 K, x2 = 0 | 929.98 | 1030.8
310.15 K, x2 = 0.1 | 941.03 | 1050.1
310.15 K, x2 = 0.2 | 950.89 | 1070.6
310.15 K, x2 = 0.3 | 960.24 | 1092.3
310.15 K, x2 = 0.4 | 969.24 | 1115.4
310.15 K, x2 = 0.5 | 978.07 | 1139.9
310.15 K, x2 = 0.6 | 986.45 | 1166.3
310.15 K, x2 = 0.7 | 994.54 | 1194.5
310.15 K, x2 = 0.8 | 1002.1 | 1224.9
310.15 K, x2 = 0.9 | 1008.86 | 1257.7
313.15 K, x2 = 0 | 926.92 | 1015.2
313.15 K, x2 = 0.1 | 938.11 | 1034.6
313.15 K, x2 = 0.2 | 947.93 | 1055.1
313.15 K, x2 = 0.3 | 957.22 | 1076.9
313.15 K, x2 = 0.4 | 966.21 | 1100.2
313.15 K, x2 = 0.5 | 975.03 | 1125
313.15 K, x2 = 0.6 | 983.45 | 1151.6
313.15 K, x2 = 0.7 | 991.62 | 1180.1
313.15 K, x2 = 0.8 | 999.14 | 1210.9
313.15 K, x2 = 0.9 | 1005.92 | 1244.2
